Laboratory results reported in PubChem BioAssay (NCI).
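In this assay, cells in 96-well plates receive the compound at five concentrations for 48 hours. Endpoints are linearly interpolated between the surrounding concentrations. The concentration for 50% growth inhibition is given as GI50. TGI: concentration producing complete growth inhibition.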

Columns and labels:
Test in all cases: NCI tumour cell line growth inhibition, 48 h
SK-MEL-2 melanoma = test system: SK-MEL-2 melanoma
U251 CNS = test system: U251 CNS
CAKI-1 renal = test system: CAKI-1 renal
MDA-MB-468 breast = test system: MDA-MB-468 breast
SNB-75 CNS = test system: SNB-75 CNS
M14 melanoma = test system: M14 melanoma
OVCAR-3 ovarian = test system: OVCAR-3 ovarian
UO-31 renal = test system: UO-31 renal
A498 renal = test system: A498 renal
EKVX NSCLC = test system: EKVX NSCLC
LOX IMVI melanoma = test system: LOX IMVI melanoma
786-0 renal = test system: 786-0 renal
BT-549 breast = test system: BT-549 breast
NCI-H226 lung = test system: NCI-H226 lung
SF-295 CNS = test system: SF-295 CNS
RPMI-8226 leukemia = test system: RPMI-8226 leukemia
UACC-257 melanoma = test system: UACC-257 melanoma
TK-10 renal = test system: TK-10 renal
T-47D breast = test system: T-47D breast
PC-3 prostate = test system: PC-3 prostate
NCI/ADR-RES ovarian = test system: NCI/ADR-RES ovarian
OVCAR-8 ovarian = test system: OVCAR-8 ovarian
HCC-2998 colon = test system: HCC-2998 colon
IGROV1 ovarian = test system: IGROV1 ovarian
SNB-19 CNS = test system: SNB-19 CNS
SW-620 colon = test system: SW-620 colon
UACC-62 melanoma = test system: UACC-62 melanoma
MALME-3M melanoma = test system: MALME-3M melanoma
CCRF-CEM leukemia = test system: CCRF-CEM leukemia
A549 NSCLC = test system: A549 NSCLC
SF-268 CNS = test system: SF-268 CNS
SK-MEL-5 melanoma = test system: SK-MEL-5 melanoma
COLO 205 colon = test system: COLO 205 colon
RXF 393 renal = test system: RXF 393 renal
MCF7 breast = test system: MCF7 breast
HOP-62 NSCLC = test system: HOP-62 NSCLC
HCT-15 colon = test system: HCT-15 colon
DU-145 prostate = test system: DU-145 prostate
HS 578T breast = test system: HS 578T breast
OVCAR-4 ovarian = test system: OVCAR-4 ovarian
MOLT-4 leukemia = test system: MOLT-4 leukemia
SK-MEL-28 melanoma = test system: SK-MEL-28 melanoma
NCI-H23 lung = test system: NCI-H23 lung
NCI-H522 lung = test system: NCI-H522 lung
SF-539 CNS = test system: SF-539 CNS
HL-60(TB) leukemia = test system: HL-60(TB) leukemia
OVCAR-5 ovarian = test system: OVCAR-5 ovarian
HT29 colon = test system: HT29 colon
K-562 leukemia = test system: K-562 leukemia
MDA-MB-435 = test system: MDA-MB-435
NCI-H460 lung = test system: NCI-H460 lung
SN12C renal = test system: SN12C renal
ACHN renal = test system: ACHN renal
SK-OV-3 ovarian = test system: SK-OV-3 ovarian
MDA-MB-231 breast = test system: MDA-MB-231 breast
HOP-92 NSCLC = test system: HOP-92 NSCLC
KM12 colon = test system: KM12 colon
HCT-116 colon = test system: HCT-116 colon

`FC(F)(F)CN1CCN(CCn2c(C(F)(F)F)cc3c(Cl)ncnc32)CC1` showed a GI50 (SK-MEL-2 melanoma) of 15.7 µM, a TGI (SK-MEL-2 melanoma) of 30.9 µM and a GI50 (U251 CNS) of 2.4 µM. It also gave a TGI (U251 CNS) of 6.43 µM, a GI50 (CAKI-1 renal) of 13.6 µM and a TGI (CAKI-1 renal) of 30.6 µM. It also gave a GI50 (MDA-MB-468 breast) of 2.19 µM, a TGI (MDA-MB-468 breast) of 4.94 µM and a GI50 (SNB-75 CNS) of 3.11 µM. It also gave a TGI (SNB-75 CNS) of 14.2 µM, a GI50 (M14 melanoma) of 6.19 µM and a TGI (M14 melanoma) of 23.1 µM. It also gave a GI50 (OVCAR-3 ovarian) of 14.3 µM, a TGI (OVCAR-3 ovarian) of 34.4 µM and a GI50 (UO-31 renal) of 1.63 µM. The TGI (UO-31 renal) was 3.27 µM, the GI50 (A498 renal) was 21.3 µM and the TGI (A498 renal) was 57.4 µM. For the same compound, the GI50 (EKVX NSCLC) was 11.6 µM, the TGI (EKVX NSCLC) was 40.4 µM and the GI50 (LOX IMVI melanoma) was 1.68 µM. The TGI (LOX IMVI melanoma) was 3.1 µM, the GI50 (786-0 renal) was 22.3 µM and the TGI (786-0 renal) was 60.7 µM. It also gave a GI50 (BT-549 breast) of 13 µM, a TGI (BT-549 breast) of 26.8 µM and a GI50 (NCI-H226 lung) of 17.4 µM. The TGI (NCI-H226 lung) was 72.8 µM, the GI50 (SF-295 CNS) was 10.3 µM and the TGI (SF-295 CNS) was 25.9 µM. For the same compound, the GI50 (RPMI-8226 leukemia) was 23.7 µM, the TGI (RPMI-8226 leukemia) was 77.4 µM and the GI50 (UACC-257 melanoma) was 4.09 µM. The TGI (UACC-257 melanoma) was 16.9 µM, the GI50 (TK-10 renal) was 35.5 µM and the TGI (TK-10 renal) was over 100 µM. For the same compound, the GI50 (T-47D breast) was 17.3 µM, the TGI (T-47D breast) was 63.7 µM and the GI50 (PC-3 prostate) was 3.53 µM. The TGI (PC-3 prostate) was 12 µM, the GI50 (NCI/ADR-RES ovarian) was 19 µM and the TGI (NCI/ADR-RES ovarian) was 46.6 µM. It also gave a GI50 (OVCAR-8 ovarian) of 3.2 µM, a TGI (OVCAR-8 ovarian) of 11.7 µM and a GI50 (HCC-2998 colon) of 1.83 µM. For the same compound, the TGI (HCC-2998 colon) was 3.28 µM, the GI50 (IGROV1 ovarian) was 1.78 µM and the TGI (IGROV1 ovarian) was 3.54 µM. It also gave a GI50 (SNB-19 CNS) of 13.2 µM, a TGI (SNB-19 CNS) of 26.8 µM and a GI50 (SW-620 colon) of 4.86 µM. For the same compound, the TGI (SW-620 colon) was 19.5 µM, the GI50 (UACC-62 melanoma) was 4.69 µM and the TGI (UACC-62 melanoma) was 18.1 µM. For the same compound, the GI50 (MALME-3M melanoma) was 14.5 µM, the TGI (MALME-3M melanoma) was 32 µM and the GI50 (CCRF-CEM leukemia) was 4.37 µM. For the same compound, the TGI (CCRF-CEM leukemia) was over 100 µM, the GI50 (A549 NSCLC) was 52.9 µM and the TGI (A549 NSCLC) was over 100 µM. It also gave a GI50 (SF-268 CNS) of 5.2 µM, a TGI (SF-268 CNS) of 21.4 µM and a GI50 (SK-MEL-5 melanoma) of 3.73 µM. It also gave a TGI (SK-MEL-5 melanoma) of 13.7 µM, a GI50 (COLO 205 colon) of 18.4 µM and a TGI (COLO 205 colon) of 46.2 µM. It also gave a GI50 (RXF 393 renal) of 11 µM, a TGI (RXF 393 renal) of 28.1 µM and a GI50 (MCF7 breast) of 10 µM. It also gave a TGI (MCF7 breast) of 42.6 µM, a GI50 (HOP-62 NSCLC) of 13.8 µM and a TGI (HOP-62 NSCLC) of 32.5 µM. The GI50 (HCT-15 colon) was 2.55 µM, the TGI (HCT-15 colon) was 7.37 µM and the GI50 (DU-145 prostate) was 12.5 µM. For the same compound, the TGI (DU-145 prostate) was 32.8 µM, the GI50 (HS 578T breast) was 14.2 µM and the TGI (HS 578T breast) was 59.8 µM. It also gave a GI50 (OVCAR-4 ovarian) of 26.8 µM, a TGI (OVCAR-4 ovarian) of over 100 µM and a GI50 (MOLT-4 leukemia) of 2.4 µM. It also gave a TGI (MOLT-4 leukemia) of 9.2 µM, a GI50 (SK-MEL-28 melanoma) of 8.13 µM and a TGI (SK-MEL-28 melanoma) of 37.4 µM. It also gave a GI50 (NCI-H23 lung) of 5.84 µM, a TGI (NCI-H23 lung) of 26.6 µM and a GI50 (NCI-H522 lung) of 1.7 µM. For the same compound, the TGI (NCI-H522 lung) was 3.52 µM, the GI50 (SF-539 CNS) was 12.6 µM and the TGI (SF-539 CNS) was 28.7 µM. It also gave a GI50 (HL-60(TB) leukemia) of 2.75 µM, a TGI (HL-60(TB) leukemia) of 8.18 µM and a GI50 (OVCAR-5 ovarian) of over 100 µM. It also gave a TGI (OVCAR-5 ovarian) of over 100 µM, a GI50 (HT29 colon) of 5.46 µM and a TGI (HT29 colon) of 36.6 µM. The GI50 (K-562 leukemia) was 2.8 µM, the TGI (K-562 leukemia) was over 100 µM and the GI50 (MDA-MB-435) was 5.5 µM. The TGI (MDA-MB-435) was 19.5 µM, the GI50 (NCI-H460 lung) was 2.66 µM and the TGI (NCI-H460 lung) was 6.73 µM. For the same compound, the GI50 (SN12C renal) was 7.75 µM, the TGI (SN12C renal) was 23.1 µM and the GI50 (ACHN renal) was 12.3 µM. For the same compound, the TGI (ACHN renal) was over 100 µM, the GI50 (SK-OV-3 ovarian) was 16.2 µM and the TGI (SK-OV-3 ovarian) was 43.2 µM. It also gave a GI50 (MDA-MB-231 breast) of 1.76 µM, a TGI (MDA-MB-231 breast) of 4.28 µM and a GI50 (HOP-92 NSCLC) of 12.9 µM. The TGI (HOP-92 NSCLC) was 29.2 µM, the GI50 (KM12 colon) was 17.9 µM and the TGI (KM12 colon) was 39.9 µM. The GI50 (HCT-116 colon) was 3.16 µM and the TGI (HCT-116 colon) was 13.3 µM.
